Results reported in patent US20080249080A1, “Benzodiazepine Derivatives and Uses Thereof on Medical Field” (priority 2005, published 2008).
Entries after “also recorded” stand apart in the source; their conditions may differ.

Legend:
[1] = test system: RET/V804L and RET/V804M mutants; details: cited from earlier work
[2] = test system: RET/E768D, RET/L790F, RET/Y791F, RET/A883F and RET/S891A mutants; details: cited from earlier work
[3] = test system: RET/C634R and RET/M918T mutants; details: cited from earlier work
RET kinase = RET kinase (Homo sapiens, UniProt P07949); details: cited from earlier work
Sequence of RET kinase (P07949 29-1114): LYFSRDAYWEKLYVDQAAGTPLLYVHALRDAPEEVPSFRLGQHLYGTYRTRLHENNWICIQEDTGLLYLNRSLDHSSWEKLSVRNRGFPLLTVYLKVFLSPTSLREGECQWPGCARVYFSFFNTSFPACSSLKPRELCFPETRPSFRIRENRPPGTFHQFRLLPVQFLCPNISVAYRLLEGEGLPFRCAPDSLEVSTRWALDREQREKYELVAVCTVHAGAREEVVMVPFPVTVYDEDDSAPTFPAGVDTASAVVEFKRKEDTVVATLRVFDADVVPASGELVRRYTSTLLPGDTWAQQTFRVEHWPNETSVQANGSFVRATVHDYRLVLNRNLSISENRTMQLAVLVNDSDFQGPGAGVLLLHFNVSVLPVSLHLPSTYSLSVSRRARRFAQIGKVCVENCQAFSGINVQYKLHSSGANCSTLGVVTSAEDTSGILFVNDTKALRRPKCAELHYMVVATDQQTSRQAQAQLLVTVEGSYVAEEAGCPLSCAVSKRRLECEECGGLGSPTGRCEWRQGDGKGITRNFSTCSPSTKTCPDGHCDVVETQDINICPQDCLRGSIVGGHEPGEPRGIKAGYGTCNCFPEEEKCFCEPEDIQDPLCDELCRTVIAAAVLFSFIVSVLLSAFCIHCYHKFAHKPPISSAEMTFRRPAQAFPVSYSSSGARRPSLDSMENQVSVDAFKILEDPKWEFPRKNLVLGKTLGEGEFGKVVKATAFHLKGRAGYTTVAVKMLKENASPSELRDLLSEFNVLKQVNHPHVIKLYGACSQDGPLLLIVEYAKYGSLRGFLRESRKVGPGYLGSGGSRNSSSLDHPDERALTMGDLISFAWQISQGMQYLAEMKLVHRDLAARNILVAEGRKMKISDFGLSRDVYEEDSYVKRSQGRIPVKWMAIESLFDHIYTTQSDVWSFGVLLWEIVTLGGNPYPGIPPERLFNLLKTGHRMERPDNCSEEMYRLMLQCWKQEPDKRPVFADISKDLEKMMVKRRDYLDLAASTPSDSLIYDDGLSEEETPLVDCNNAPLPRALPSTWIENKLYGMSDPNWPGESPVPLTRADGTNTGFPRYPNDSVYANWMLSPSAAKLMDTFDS

[4] = test system: OVCAR3 ovary carcinoma cell line; experiment: DNA fragmentation, OVCAR3; format: cell-based, human; details: 10 μM, 24 and 48 hours
Excerpt: (§1) The authors also have tested compounds according to the invention, in particular RS-678 and RS-779 compounds, also on OVCAR3 ovary carcinoma cell lines, ARO anaplastic thyroid and NPA papillary thyroid human carcinoma cell lines.

[5] = test system: mixed lymphocytic cultures from marrow or peripheral blood of patients suffering from chronic myelogenous leukemia; experiment: DNA fragmentation, mixed lymphocytic cultures of CML patients; format: cell-based, human; details: 10 μM
bcr-abl protein [6] = experiment: Western blot, bcr-abl protein expression; format: cell-based, human; details: after 16 hours of treatment; FIG. 4
Method: (§2) Moreover, in order to elucidate the apoptotic pathway triggered by these two substances, Western Blotting experiments and tyrosine-kinase assays were carried out and evidenced that: […]

K562 cell line [7] = experiment: DNA fragmentation, K562 leukemic cell line; format: cell-based, human; details: 5, 10, 15 μM, 8, 16 and 24 hours, FIG. 1 A, B
[8] = test system: R2C cell line (rat Leydig tumour); experiment: DNA fragmentation, R2C cell line; format: cell-based; details: high concentrations (10 μM and 50 μM), FIG. 1 C
caspase 8 = experiment: Western blot, caspase 8 activation in K562; format: cell-based, human; details: FIG. 3
Method: (§3) Moreover, in order to elucidate the apoptotic pathway triggered by these two substances, Western Blotting experiments and tyrosine-kinase assays were carried out and evidenced that: (i) these compounds activate specific molecules involved in the apoptotic process (caspase 9 and caspase 8) (FIG. 3);

caspase 9 [9] = experiment: Western blot, caspase 9 activation in K562; format: cell-based, human; details: FIG. 3
Method: as §3

Glivec resistant K562 = experiment: Apoptosis by propidium iodide flow cytofluorimetry, Glivec resistant K562; format: cell-based, human; details: 10 μM; for percentage of the apoptotic cells in comparison with non treated cells: FIGS. 7-9; for time after which apoptosis is induced: propidium iodide, cytofluorimeter
Method: (§4) The used cellular lines are: K562 (human erythroleucemic cell line), HL60 (human acute promyelocytic leukemia cell line), Jurkat (cell line from acute lymphoblastic T variant leukemias), U937 (acute promyelocitic leukemia cell line) and Glivec resistant K562 (this cell line was supplied kindly by Prof. Carlo Gambacorti-Passerini of the Dipartimento of Clinica Medica, Università of Milan-Bicocca, Monza, Italy) (Gambacorti-Passerini CB, et al, 2002).
(§5) The cell lines were incubated with RS678 and RS779 synthetic compounds at 10 μM concentration for 8, 16 and 24 hours, subsequently washed with PBS and 2.5 mg/ml of propidium iodide. This phenanthridine dye, when intercalated into double-stranded DNA forms a sufficiently stable complex that under excitation emits a red fluorescent light. By means of this coloration it is possible to discriminate in an heterogenous population cells with different DNA contents and therefore to estimate the distribution of the cellular populations based on their DNA contents and whether possibly, as a result from pharmacological treatments, alterations at level of cell cycle have manifested. The labeled cell lines were analyzed using flow FACSort cytofluorimeter.

[10] = test system: K562 (human erythroleucemic cell line); experiment: Apoptosis by propidium iodide flow cytofluorimetry, K562; format: cell-based; details: 10 μM; for percentage of the apoptotic cells in comparison with non treated cells: FIGS. 7-9; for time after which apoptosis is induced: propidium iodide, cytofluorimeter
Method: as §4, §5

[11] = test system: ARO anaplastic thyroid carcinoma cell line; experiment: DNA fragmentation, ARO; format: cell-based, human; details: 10 μM, 24 and 48 hours
Method: as §1
(§6) Subsequently, the same cell lines, except OVCAR3, were tested with fourteen new synthetic compounds at 10 μM concentration for 24 and 48 hours: eleven induced the expected cellular death.

[12] = test system: NPA papillary thyroid carcinoma cell line; experiment: DNA fragmentation, NPA; format: cell-based, human; details: 10 μM, 24 and 48 hours
Method: as §1, §6

[13] = test system: HL60 (human acute promyelocytic leukemia cell line); experiment: Apoptosis by propidium iodide flow cytofluorimetry, HL60; format: cell-based; details: 10 μM; for percentage of the apoptotic cells in comparison with non treated cells: FIGS. 7-9; for time after which apoptosis is induced: propidium iodide, cytofluorimeter
Method: as §4, §5

bcr-abl protein [14] = biological target: T1, bcr-abl protein (Homo sapiens, UniProt P00519); experiment: Tyrosine-kinase assay, bcr-abl phosphorylation pattern; format: cell-based; details: FIG. 4
T1 construct: endogenous in cells; host or cells: K562; the other entry of the earlier key: BCR (P11274, Breakpoint cluster region protein)
T1 sequence (P00519 with tags, fused parts or gaps): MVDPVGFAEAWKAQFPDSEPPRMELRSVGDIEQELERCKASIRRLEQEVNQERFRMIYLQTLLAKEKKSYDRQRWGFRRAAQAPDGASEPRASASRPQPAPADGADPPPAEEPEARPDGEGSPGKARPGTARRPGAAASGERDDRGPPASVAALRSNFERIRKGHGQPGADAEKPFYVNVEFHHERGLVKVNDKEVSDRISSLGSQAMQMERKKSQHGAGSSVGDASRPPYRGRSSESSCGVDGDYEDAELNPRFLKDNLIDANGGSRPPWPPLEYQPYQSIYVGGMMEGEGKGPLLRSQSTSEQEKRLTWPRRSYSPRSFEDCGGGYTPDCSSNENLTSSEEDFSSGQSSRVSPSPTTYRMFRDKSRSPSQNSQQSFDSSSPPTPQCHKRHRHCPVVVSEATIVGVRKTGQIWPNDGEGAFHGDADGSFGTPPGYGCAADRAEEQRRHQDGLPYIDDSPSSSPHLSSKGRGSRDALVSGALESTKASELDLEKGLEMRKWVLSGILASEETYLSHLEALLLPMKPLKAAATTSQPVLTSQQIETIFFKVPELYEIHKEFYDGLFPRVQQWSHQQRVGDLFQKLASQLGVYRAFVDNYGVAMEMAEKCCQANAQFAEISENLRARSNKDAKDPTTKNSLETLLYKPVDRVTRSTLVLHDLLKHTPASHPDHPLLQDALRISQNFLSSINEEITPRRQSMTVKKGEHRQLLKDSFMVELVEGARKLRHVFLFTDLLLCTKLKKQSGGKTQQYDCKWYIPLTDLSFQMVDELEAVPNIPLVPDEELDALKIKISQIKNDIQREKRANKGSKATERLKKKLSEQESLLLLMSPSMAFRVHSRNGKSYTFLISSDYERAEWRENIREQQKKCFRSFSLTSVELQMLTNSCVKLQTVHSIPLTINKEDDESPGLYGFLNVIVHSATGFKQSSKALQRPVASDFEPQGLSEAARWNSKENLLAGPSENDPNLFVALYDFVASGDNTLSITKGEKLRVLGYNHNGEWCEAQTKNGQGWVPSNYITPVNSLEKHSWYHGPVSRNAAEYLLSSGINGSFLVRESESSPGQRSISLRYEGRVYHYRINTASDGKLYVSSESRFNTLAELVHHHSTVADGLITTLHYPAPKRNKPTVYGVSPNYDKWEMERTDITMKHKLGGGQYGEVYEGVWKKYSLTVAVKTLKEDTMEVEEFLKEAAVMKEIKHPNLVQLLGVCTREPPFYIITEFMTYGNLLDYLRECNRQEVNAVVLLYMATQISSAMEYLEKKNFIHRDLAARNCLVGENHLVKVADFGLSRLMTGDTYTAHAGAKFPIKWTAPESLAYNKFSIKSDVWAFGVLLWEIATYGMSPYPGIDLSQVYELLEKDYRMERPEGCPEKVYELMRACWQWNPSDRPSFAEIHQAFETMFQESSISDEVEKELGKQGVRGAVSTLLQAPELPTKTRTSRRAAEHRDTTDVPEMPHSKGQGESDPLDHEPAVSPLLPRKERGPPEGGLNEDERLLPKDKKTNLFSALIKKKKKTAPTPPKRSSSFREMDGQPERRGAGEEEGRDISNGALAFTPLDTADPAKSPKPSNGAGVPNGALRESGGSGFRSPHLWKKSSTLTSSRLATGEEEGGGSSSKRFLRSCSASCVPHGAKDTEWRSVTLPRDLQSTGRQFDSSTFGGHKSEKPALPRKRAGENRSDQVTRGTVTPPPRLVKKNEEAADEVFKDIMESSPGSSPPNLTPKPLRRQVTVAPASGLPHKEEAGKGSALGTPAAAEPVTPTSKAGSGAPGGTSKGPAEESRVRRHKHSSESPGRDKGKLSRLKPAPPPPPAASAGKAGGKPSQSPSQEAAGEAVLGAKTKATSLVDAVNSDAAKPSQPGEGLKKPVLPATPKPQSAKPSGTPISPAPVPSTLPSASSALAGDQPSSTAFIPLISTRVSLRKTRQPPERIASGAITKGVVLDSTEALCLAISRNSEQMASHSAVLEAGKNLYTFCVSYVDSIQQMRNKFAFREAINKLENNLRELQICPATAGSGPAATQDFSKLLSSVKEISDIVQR
Method: as §2

[15] = test system: Jurkat (cell line from acute lymphoblastic T variant leukemias); experiment: Apoptosis by propidium iodide flow cytofluorimetry, Jurkat; format: cell-based; details: 10 μM; for percentage of the apoptotic cells in comparison with non treated cells: FIGS. 7-9; for time after which apoptosis is induced: propidium iodide, cytofluorimeter
Method: as §4, §5

[16] = test system: U937 (acute promyelocitic leukemia cell line); experiment: Apoptosis by propidium iodide flow cytofluorimetry, U937; format: cell-based; details: 10 μM; for percentage of the apoptotic cells in comparison with non treated cells: FIGS. 7-9; for time after which apoptosis is induced: propidium iodide, cytofluorimeter
Method: as §4, §5

K562 cell line [17] = experiment: DNA fragmentation, K562 leukemic cell line; format: cell-based, human; details: 10 μM, 24 and 48 hours, FIGS. 18, 20, 21
Method: as §6

caspase 9 [18] = experiment: Western blot, caspase 9 in CML patient sample; format: cell-based, human; details: 24 and 48 hours, FIG. 15
NPA cell line = experiment: Percentage of apoptosis, NPA; format: cell-based, human; details: after 24 hours
ARO cell line = experiment: Percentage of dead cells, ARO; format: cell-based, human; details: after 24 hours
K562 cell line [19] = experiment: Percentage of apoptosis, K562; format: cell-based, human; details: after 24 hours
[20] = test system: tested cell lines (K562, ARO, NPA); experiment: Relative cellular death in the tested cell lines; format: cell-based, human
Method: as §6

HL-60 and Jurkat cells = details: laboratory experiments; cited from earlier work
[21] = mixed lymphocytic cultures of CML patients, 8, 16, 24 and 48 hours
[22] = samples from patients (some Glivec resistant), 24, 48 and 72 hours, FIGS. 12-14

In the case of Cc1ccc(-c2nn(C(C)(C)C)c3ncnc(N)c23)cc1 [PP1], the “sensitivity to the action of inhibitors” value [1] is given as “less sensitive”, the “inhibition of in vivo self-phosphorylation” value [2] is given as “inhibited effectively” and the “block of the transforming activity” value [3] is given as “able to block”.

In the case of CC(C)(C)n1nc(-c2ccc(Cl)cc2)c2c(N)ncnc21 [PP2], the “inhibiting activity with respect to RET kinase” value (RET kinase) is listed as “strong inhibiting activity”, the “sensitivity to the action of inhibitors” value [1] is listed as “less sensitive” and the “inhibition of in vivo self-phosphorylation” value [2] is listed as “inhibited effectively”. The “block of the transforming activity” value [3] was “able to block”.

With CCOC(=O)C1Nc2ccccc2S(=O)(=O)n2cccc21 (centres unmarked) [RS-678, ethyl 10,11-dihydropyrrolo[1,2-b][1,2,5]benzothiadiazepine-11-carboxylate 5,5-dioxide] the DNA fragmentation [4] was “induction of the DNA fragmentation”, the DNA fragmentation [5, 21] was “fragmentation of the DNA” and the DNA fragmentation [5, 22] was “DNA fragmentation”. For the same compound, the “down-regulation of the bcr-abl protein (Western blot)” value (bcr-abl protein [6]) was “down-regulation”, the “apoptosis / DNA fragmentation” value (K562 cell line [7]) was “able to induce apoptosis; also recorded: DNA fragmentation” and the DNA fragmentation [8] was “does not occur”. For the same compound, the “activation of caspase 8 (Western blot)” value (caspase 8) was “activation”, the “activation of caspase 9 (Western blot)” value (caspase 9 [9]) was “activation” and the “percentage of the apoptotic cells in comparison with non treated cells” value (“percentage … with non treated cells” for short) (Glivec resistant K562) was “increase”. The “time after which apoptosis is induced” value (Glivec resistant K562) was 16 h, the “percentage … with non treated cells” value [10] was “increase” and the “time after which apoptosis is induced” value [10] was 8 h. For the same compound, the DNA fragmentation [11] was “induction of the DNA fragmentation”, the DNA fragmentation [12] was “induction of the DNA fragmentation” and the “percentage … with non treated cells” value [13] was “increase”. For the same compound, the “time after which apoptosis is induced” value [13] was 8 h, the “changes in the phosphorylation pattern of the bcr-abl protein (tyrosine-kinase assay)” value (bcr-abl protein [14]) was “not observed” and the “percentage … with non treated cells” value [15] was “increase”. For the same compound, the “time after which apoptosis is induced” value [15] was 8 h, the “percentage … with non treated cells” value [16] was “increase” and the “time after which apoptosis is induced” value [16] was 8 h.

For O=C(O)C1Nc2ccccc2S(=O)(=O)n2cccc21 (centres unmarked) [RS-735, 10,11-dihydropyrrolo[1,2-b][1,2,5]benzothiadiazepine-11-carboxylic 5,5-dioxide acid], the DNA fragmentation (K562 cell line [17]) was “not present”, the “apoptosis / DNA fragmentation” value (K562 cell line [7]) was “not able to produce the DNA fragmentation” and the DNA fragmentation [11] was “not present”. The DNA fragmentation [12] was “not present”.

For CCOC(=O)CC1Nc2ccccc2S(=O)(=O)n2cccc21 (centres unmarked) [RS-752, ethyl 10,11-dihydropyrrolo[1,2-b][1,2,5]benzothiadiazepine-11-acetate 5,5-dioxide], the DNA fragmentation (K562 cell line [17]) was “DNA fragmentation”, the DNA fragmentation [5, 22] was “DNA fragmentation” and the DNA fragmentation [11] was “DNA fragmentation”. The DNA fragmentation [12] was “DNA fragmentation”.

With CCOC(=O)C1c2cccn2S(=O)(=O)c2ccccc2N1C(=O)c1ccc(C)cc1 (centres unmarked) [RS-779, ethyl 10,11-dihydro-10-(4-methylbenzoyl)pyrrolo[1,2-b][1,2,5]benzothiadiazepine-11-carboxylate 5,5-dioxide] the DNA fragmentation [4] was “induction of the DNA fragmentation”, the “activation of caspase 9 (Western blot)” value (caspase 9 [18]) was “strong activation” and the DNA fragmentation [5, 21] was “fragmentation of the DNA”. The DNA fragmentation [5, 22] was “DNA fragmentation”, the “down-regulation of the bcr-abl protein (Western blot)” value (bcr-abl protein [6]) was “down-regulation” and the “apoptosis / DNA fragmentation” value (K562 cell line [7]) was “able to induce apoptosis; also recorded: DNA fragmentation”. The DNA fragmentation [8] was “does not occur”, the “activation of caspase 8 (Western blot)” value (caspase 8) was “activation” and the “activation of caspase 9 (Western blot)” value (caspase 9 [9]) was “activation”. For the same compound, the “percentage … with non treated cells” value (Glivec resistant K562) was “increase”, the “time after which apoptosis is induced” value (Glivec resistant K562) was 16 h and the “percentage … with non treated cells” value [10] was “increase”. The “time after which apoptosis is induced” value [10] was 8 h, the percentage of apoptosis (NPA cell line) was 50% and the “percentage of dead cells” value (ARO cell line) was 45%. The DNA fragmentation [11] was “induction of the DNA fragmentation”, the DNA fragmentation [12] was “induction of the DNA fragmentation” and the percentage of apoptosis (K562 cell line [19]) was 70%. The “percentage … with non treated cells” value [13] was “increase”, the “time after which apoptosis is induced” value [13] was 8 h and the “changes in the phosphorylation pattern of the bcr-abl protein (tyrosine-kinase assay)” value (bcr-abl protein [14]) was “not observed”. For the same compound, the “percentage … with non treated cells” value [15] was “increase”, the “time after which apoptosis is induced” value [15] was 8 h and the “percentage … with non treated cells” value [16] was “increase”. The “time after which apoptosis is induced” value [16] was 8 h.

For CCOC(=O)C1c2cccn2S(=O)(=O)c2ccccc2N1C(=O)c1ccccc1 (centres unmarked) [RS-2629, ethyl 10,11-dihydro-10-(benzoyl)pyrrolo[1,2-b][1,2,5]benzo-thiadiazepine-11-carboxylate 5,5-dioxide], the DNA fragmentation (K562 cell line [17]) was “DNA fragmentation”, the “cellular death relative to other compounds” value [20] was “greater cellular death” and the percentage of apoptosis (NPA cell line) was 80%. For the same compound, the “percentage of dead cells” value (ARO cell line) was “approximately 60%”, the DNA fragmentation [11] was “DNA fragmentation” and the DNA fragmentation [12] was “DNA fragmentation”. For the same compound, the percentage of apoptosis (K562 cell line [19]) was 85%.

For CCOC(=O)C1c2cccn2S(=O)(=O)c2ccccc2N1C(=O)c1ccc(Cl)cc1 (centres unmarked) [RS-2630, ethyl 10,11-dihydro-10-(4-chlorobenzoyl)pyrrolo[1,2-b][1,2,5]benzothiadiazepine-11-carboxylate 5,5-dioxide], the DNA fragmentation (K562 cell line [17]) was “DNA fragmentation”, the “cellular death relative to other compounds” value [20] was “greater cellular death” and the percentage of apoptosis (NPA cell line) was 80%. The “percentage of dead cells” value (ARO cell line) was “approximately 60%”, the DNA fragmentation [11] was “DNA fragmentation” and the DNA fragmentation [12] was “DNA fragmentation”. The percentage of apoptosis (K562 cell line [19]) was 85%.

For CCOC(=O)CC1c2cccn2S(=O)(=O)c2ccccc2N1C(=O)c1ccccc1 (centres unmarked) [RS-2645, ethyl 10,11-dihydro-10-(benzoyl)pyrrolo[1,2-b][1,2,5]benzo-thiadiazepine-11-acetate 5,5-dioxide], the DNA fragmentation (K562 cell line [17]) was “DNA fragmentation”, the “cellular death relative to other compounds” value [20] was “greater cellular death” and the DNA fragmentation [11] was “DNA fragmentation”. The DNA fragmentation [12] was “DNA fragmentation”.

For CC[C@@]1(O)C(=O)OCc2c1cc1n(c2=O)Cc2cc3ccccc3nc2-1 [camptothecin], the induction of apoptosis (HL-60 and Jurkat cells) is given as “able to induce apoptosis”.

For COc1cccc2c1C(=O)c1c(O)c3c(c(O)c1C2=O)C[C@@](O)(C(C)=O)C[C@@H]3O[C@H]1C[C@H](N)[C@H](O)[C@H](C)O1 [daunoribucin], the induction of apoptosis (HL-60 and Jurkat cells) is given as “able to induce apoptosis”.

In the case of COc1cccc2c1C(=O)c1c(O)c3c(c(O)c1C2=O)C[C@@](O)(C(=O)CO)C[C@@H]3O[C@H]1C[C@H](N)[C@H](O)[C@H](C)O1 [doxorubicin], the induction of apoptosis (HL-60 and Jurkat cells) is given as “able to induce apoptosis”.

In the case of COc1cc([C@@H]2c3cc4c(cc3[C@@H](O[C@@H]3O[C@@H]5CO[C@@H](C)O[C@H]5[C@H](O)[C@H]3O)[C@H]3COC(=O)[C@H]23)OCO4)cc(OC)c1O [etoposide], the induction of apoptosis (HL-60 and Jurkat cells) is given as “able to induce apoptosis”.
